Experimental data taken from PubChem BioAssay (NCI).
Where “and” joins values, the source holds several entries; their conditions need not be identical. Equal values may be shown once.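 Interpolation was linear, between the two tested concentrations surrounding the appropriate level; five concentrations were tested over 48 hours in 96-well plates. Here, GI50 denotes the concentration required for 50% inhibition of growth. Definition used: TGI = concentration required for complete inhibition of growth.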

Experiments:
Assay in all cases: NCI-60 cell line screen, 48 h
A549 NSCLC = tested on: A549 NSCLC
ACHN renal = tested on: ACHN renal
M14 melanoma = tested on: M14 melanoma
MALME-3M melanoma = tested on: MALME-3M melanoma
MCF7 breast = tested on: MCF7 breast
MOLT-4 leukemia = tested on: MOLT-4 leukemia
NCI-H23 lung = tested on: NCI-H23 lung
PC-3 prostate = tested on: PC-3 prostate
SN12C renal = tested on: SN12C renal
SNB-19 CNS = tested on: SNB-19 CNS

Compound | GI50 (A549 NSCLC) | TGI (A549 NSCLC) | GI50 (ACHN renal) | TGI (ACHN renal) | GI50 (M14 melanoma) | TGI (M14 melanoma) | GI50 (MALME-3M melanoma) | TGI (MALME-3M melanoma) | GI50 (MCF7 breast) | TGI (MCF7 breast) | GI50 (MOLT-4 leukemia) | TGI (MOLT-4 leukemia) | GI50 (NCI-H23 lung) | TGI (NCI-H23 lung) | GI50 (PC-3 prostate) | TGI (PC-3 prostate) | GI50 (SN12C renal) | TGI (SN12C renal) | GI50 (SNB-19 CNS) | TGI (SNB-19 CNS)
CC/C=C\C/C=C\C[C@H](O)C/C=C1/C(=O)C=C[C@@H]1C/C=C\CCCC(=O)O | 13.6 µM | 56.6 µM | 4.84 µM | 18.5 µM | 2.82 µM | 12 µM | 3.46 µM | 15.6 µM | 2.96 µM | 18.5 µM | 2.83 µM | 11.8 µM | 4.09 µM | 17.1 µM | 6.03 µM | 21.5 µM | 3.6 µM | 43.1 µM | 8.75 µM | 24.3 µM
C=CC(C)(O)/C=C/C=C(\C)C(CC1OC1(C)C)OC(=O)/C(C)=C\C (stereo unspecified) | – | > 100 µM | – | > 100 µM | – | > 100 µM | – | > 100 µM | – | > 100 µM | – | > 100 µM | – | > 100 µM | – | > 100 µM | – | > 100 µM | – | > 100 µM
COc1ccc2c(c1)C(=O)c1c-2c(Nc2ccc(C(C)=O)cc2)nc2ccccc12 | 37.2 µM | > 100 µM | 53.5 µM | > 100 µM | 64.6 µM | > 100 µM | 49.6 µM | > 100 µM | 64.7 µM | > 100 µM | > 100 µM | > 100 µM | 18 µM | 99.2 µM | 34.3 µM | > 100 µM | 33.4 µM | > 100 µM | 14.5 µM | 37.3 µM
COc1cc2nccc(Oc3ccc(NC(=O)C4(C(=O)Nc5ccc(F)cc5)CC4)cc3)c2cc1Oc1ccc(N)cn1 | 2.38 µM | 9.05 µM | 2.76 µM | 10.2 µM | 2.66 µM | 34.8 µM | 2.09 µM | 8.52 µM | 2.28 µM | > 100 µM | 3.12 µM | > 100 µM | 2.57 µM | > 100 µM | 3.12 µM | > 100 µM | 1.1 µM | > 100 µM | 4.49 µM | > 100 µM
COc1ccc2c(c1)C(=O)C(=O)c1cc(O)c(OC)c(OC)c1-2 | 1.96 µM | 12.1 µM and 3.89 µM | 1.97 µM | 1.59 µM and 3.38 µM | 1.73 µM | 1.71 µM and 3.11 µM | 1.22 µM | 1.53 µM and 2.46 µM | 1.96 µM | 1.74 µM and 3.59 µM | 2.38 µM | 0.746 µM and 5.74 µM | 1.77 µM | 1.77 µM and 4.23 µM | 1.93 µM | 2.48 µM and 3.34 µM | 1.71 µM | 1.6 µM and 3.08 µM | 1.85 µM | 2.38 µM and 3.28 µM
O=C(CN1CCN(c2ccc(Cl)cc2)CC1)N1CCN(c2nnc(-c3ccc(Cl)cc3)c(-c3ccc(Cl)cc3)n2)CC1 | > 100 µM | > 100 µM | 31.5 µM | > 100 µM | 28.2 µM | > 100 µM | 39.9 µM | > 100 µM | 8.9 µM | > 100 µM | 5.92 µM | > 100 µM | 48 µM | > 100 µM | 57.5 µM | > 100 µM | 37 µM | > 100 µM | 19.1 µM | 63.5 µM
N#Cc1ccc(N2Cc3ccccc3OC3=C2C(=O)c2c(O)ccc(O)c2C3=O)cc1 | 2.49 µM | 9.76 µM | 0.0547 µM | 0.16 µM | 0.209 µM | 0.496 µM | 0.0837 µM | 0.264 µM | 0.329 µM | 2.66 µM | 0.102 µM | 0.76 µM | 1.32 µM | 4.2 µM | 0.357 µM | 1.29 µM | 0.856 µM | 2.16 µM | 1.09 µM | 5.05 µM
CN(N=O)C(=O)N[C@@H](C=O)[C@@H](O)[C@H](O)[C@H](O)CO | > 750 µM | > 750 µM | – | > 750 µM | – | > 750 µM | > 750 µM | 657 µM and > 750 µM | – | > 633 µM | > 750 µM | 574 µM and > 750 µM | > 750 µM | > 750 µM | – | > 750 µM | > 750 µM | 603 µM and > 750 µM | > 750 µM | > 750 µM
C/C1=C/C2=CC(C)C[C@@H]2C(=O)[C@]2(C)C(=O)CC(C)(C)[C@H]2CC1=O (stereo partly specified) | – | > 50 µM | – | > 50 µM | – | > 50 µM | – | > 50 µM | – | > 50 µM | – | > 50 µM | – | > 50 µM | – | > 50 µM | – | > 50 µM | – | > 50 µM
O=C(Nc1ccc(Cl)cc1F)c1cc(I)ccc1O | 2.88 µM | > 100 µM | 1.81 µM | 10.1 µM | 0.711 µM | 5.57 µM | 0.608 µM | 3.87 µM | 2.38 µM | 18.5 µM | 2.41 µM | 6.89 µM | 1.78 µM | 6.59 µM | 2.07 µM | 6.36 µM | 1.01 µM | 7.62 µM | 0.714 µM | 92 µM
O=C(Nc1cccc(Oc2nnc(Cl)c3ccccc23)c1)Nc1ccc(Cl)c(C(F)(F)F)c1 | 1.1 µM | 8.3 µM | 0.711 µM | 3.8 µM | 0.707 µM | 3.16 µM | 0.968 µM | 4 µM | 0.571 µM | 3.03 µM | 0.494 µM | 4.18 µM | 0.907 µM | 4.36 µM | 0.545 µM | 2.51 µM | 0.941 µM | 3.85 µM | 1.26 µM | 4.9 µM
CN1CCN(c2ccc3nc(-c4c(N)c5c(F)cccc5[nH]c4=O)[nH]c3c2)CC1 | 0.594 µM and 0.451 µM and 0.674 µM | 2.15 µM and > 3.74 µM and 3.86 µM | 0.335 µM and 0.342 µM and 0.371 µM | 1.83 µM and > 6.36 µM and 4.74 µM | 0.41 µM and 0.34 µM and 0.445 µM | 1.71 µM and 1.54 µM and 1.93 µM | 0.901 µM and 0.498 µM and 0.547 µM | 2.46 µM and 1.75 µM and 1.97 µM | 0.875 µM and 0.71 µM and 1.21 µM | 2.78 µM and > 4.82 µM and 6.76 µM | 0.392 µM and 0.322 µM and 0.42 µM | 3.6 µM and 1.52 µM and 4.54 µM | 1.53 µM and 0.9 µM and 2.05 µM | 6.44 µM and > 3.6 µM and 11.1 µM | 1.16 µM and 1.02 µM and 1.73 µM | 7.1 µM and > 7.42 µM and 8.59 µM | 0.413 µM and 0.393 µM and 0.62 µM | 5.3 µM and > 5.12 µM and 5.82 µM | 1.9 µM and > 1.97 µM and 2.56 µM | 8.89 µM and > 10 µM and 12.6 µM
C=CC(C=O)C1(O)CCOC(=O)/C1=C\N (stereo unspecified) | > 100 µM | > 100 µM | > 100 µM | > 100 µM | > 100 µM | > 100 µM | > 100 µM | > 100 µM | > 100 µM | > 100 µM | > 100 µM | > 100 µM | 52.4 µM | > 100 µM | > 100 µM | > 100 µM | > 100 µM | > 100 µM | > 100 µM | > 100 µM
